Source: patent US8067424B2, “Selective inhibitors for cyclin-dependent kinases” (Emory University, priority 2007, dated 2011)
Like-named read-outs stand apart in the source and are kept apart here.

Experiments:
CDK2/cyclin A complex = target: T1, CDK2/cyclin A complex (Homo sapiens, UniProt P24941); assay: CDK2/cyclin A kinase assay (as for CDK7); type: biochemical; conditions: for remaining activity at 0.1 µM: 100 nM, mean of three (standard deviation), read-out: CDK2 % remaining kinase activity after incubation with 100 nM of compound
T1 construct: purchased Proqinase GmbH, Germany
Method: (§1) Prepared test compounds, prepared at concentrations of 1000, 100, 10, 1 and 0.1 μM. Diluted 1 in 40 in ddH2O and added 1 μl of test compound or DMSO (controls). • 3. Incubated at 30° C. for 30 mins in a water bath. • 4. Added 10 µl of ATP […] per reaction to get a final concentration of 2 μM ATP. • 5. Made up to 25 μl total volume with ddH2O • 6. Incubated for 20 min at 30° C. in a water bath • 7. Used the PKLight Kinase assay (Cambrex, UK), add to each reaction 10 μl of stop reaction and mix thoroughly. Incubated at room temp for 10 min. • 8. Added 20 μ1 Luciferase reaction mixture (Cambrex, UK) per reaction, and further incubated at room temp for 10 mins and determined luciferase activities according to manufacturer's methods. Kinase reactions were added to 96 well microplates and luciferase activities determined using a Packard TopCount NXT™ luminescent counter (TopCount 9904). The luminometer was programmed to take a read time of 0.1 integrated reading and emission of light was detectable at 560 nm. • 9. All kinase inhibition assays were carried out in triplicate. As the bioluminescent signal is inversely proportional to kinase activity, all values were deducted from the no enzyme control. These values were then plotted utilizing the enzyme control as a reference to 100% activity and compared to all other values.
(§2) Inhibition of CDK2 was assessed using 50 ng CDK2/cyclin A complex (Proqinase GmbH, Germany), as above for CDK7 Inhibition of CDK9 was assessed using 100 ng CDK9/cyclin T complex (Proqinase GmbH, Germany), as above for CDK7.

CDK9/cyclin T complex = target: T2, CDK9/cyclin T complex (Homo sapiens, UniProt P50750); assay: CDK9/cyclin T kinase assay (as for CDK7); type: biochemical; conditions: for remaining activity at 0.1 µM: 100 nM, mean of three (standard deviation), read-out: CDK9 % remaining kinase activity after incubation with 100 nM of compound
T2 construct: purchased Proqinase GmbH, Germany
T2 sequence (P50750 whole entry): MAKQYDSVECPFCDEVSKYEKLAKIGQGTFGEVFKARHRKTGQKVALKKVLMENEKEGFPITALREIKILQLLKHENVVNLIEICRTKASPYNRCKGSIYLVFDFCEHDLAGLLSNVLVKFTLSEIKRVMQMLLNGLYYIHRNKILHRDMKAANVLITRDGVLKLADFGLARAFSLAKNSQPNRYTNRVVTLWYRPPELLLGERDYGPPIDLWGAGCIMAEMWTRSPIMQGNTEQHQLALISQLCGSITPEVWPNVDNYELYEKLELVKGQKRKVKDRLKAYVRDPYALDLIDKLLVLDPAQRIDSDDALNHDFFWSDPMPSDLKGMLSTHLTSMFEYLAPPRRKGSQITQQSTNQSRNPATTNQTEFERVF
T2 sequence (O60563 whole entry partner): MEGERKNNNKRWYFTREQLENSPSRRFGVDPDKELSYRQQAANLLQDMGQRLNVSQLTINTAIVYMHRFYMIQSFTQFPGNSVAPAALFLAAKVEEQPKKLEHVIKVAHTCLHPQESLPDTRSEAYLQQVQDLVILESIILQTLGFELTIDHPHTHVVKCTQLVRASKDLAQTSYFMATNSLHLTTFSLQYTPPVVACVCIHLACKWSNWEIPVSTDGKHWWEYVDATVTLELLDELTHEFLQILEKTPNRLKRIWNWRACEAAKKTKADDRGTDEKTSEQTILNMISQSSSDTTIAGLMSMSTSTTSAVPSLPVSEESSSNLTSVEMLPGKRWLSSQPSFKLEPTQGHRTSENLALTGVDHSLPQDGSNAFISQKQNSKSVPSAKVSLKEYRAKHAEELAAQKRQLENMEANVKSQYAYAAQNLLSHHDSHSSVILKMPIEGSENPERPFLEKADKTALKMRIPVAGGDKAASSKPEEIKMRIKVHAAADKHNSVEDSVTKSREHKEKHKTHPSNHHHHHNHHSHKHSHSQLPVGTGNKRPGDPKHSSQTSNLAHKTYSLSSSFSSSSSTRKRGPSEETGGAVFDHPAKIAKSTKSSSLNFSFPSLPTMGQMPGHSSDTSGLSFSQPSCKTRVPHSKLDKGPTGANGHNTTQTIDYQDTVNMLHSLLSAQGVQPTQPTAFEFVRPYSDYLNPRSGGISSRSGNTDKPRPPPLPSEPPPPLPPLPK
Method: as §1, §2

CDK4 = CDK4 (Homo sapiens, UniProt P11802); assay: CDK4 in vitro kinase inhibition (protocol similar to Example 14); type: biochemical; conditions: 100 nM; mean of three (standard deviation); read-out: CDK4 % remaining kinase activity after incubation with 100 nM of compound
Chain of CDK4 (P11802 whole entry): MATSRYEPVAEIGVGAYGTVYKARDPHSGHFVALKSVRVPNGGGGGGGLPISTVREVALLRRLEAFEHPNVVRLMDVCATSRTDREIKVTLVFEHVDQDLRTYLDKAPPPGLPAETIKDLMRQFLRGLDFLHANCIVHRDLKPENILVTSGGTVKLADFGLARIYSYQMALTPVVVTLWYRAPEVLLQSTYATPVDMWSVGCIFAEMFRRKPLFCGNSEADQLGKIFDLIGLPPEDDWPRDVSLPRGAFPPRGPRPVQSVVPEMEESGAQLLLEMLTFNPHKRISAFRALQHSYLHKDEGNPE
Chain of CDK4 (P24385 whole entry partner): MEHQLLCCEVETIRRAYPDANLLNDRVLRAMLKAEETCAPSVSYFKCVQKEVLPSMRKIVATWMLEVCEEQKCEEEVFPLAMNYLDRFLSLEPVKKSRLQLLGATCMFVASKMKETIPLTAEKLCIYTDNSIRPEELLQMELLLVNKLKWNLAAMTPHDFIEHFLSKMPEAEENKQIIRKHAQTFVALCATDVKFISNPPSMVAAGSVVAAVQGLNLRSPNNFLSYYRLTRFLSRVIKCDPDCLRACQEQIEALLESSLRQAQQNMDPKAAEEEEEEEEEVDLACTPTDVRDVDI
Method: as §1
(§3) This example provides in vitro kinase inhibition data for various compounds within the scope of the invention versus CDK 2, CDK 4, CDK, 5, CDK 7 and CDK 9. The protocol was similar to that shown in Example 14 Inhibition of the protein kinases was performed in triplicate using each compound at 100 nM.
(§4) This example provides in vitro kinase inhibition data for various compounds within the scope of the invention versus CDK 2, CDK 4, CDK, 5, CDK 7 and CDK 9.

CDK 5 = CDK 5 (Homo sapiens, UniProt Q00535); assay: CDK5 in vitro kinase inhibition (protocol similar to Example 14); type: biochemical; conditions: 100 nM; mean of three (standard deviation); read-out: CDK5 % remaining kinase activity after incubation with 100 nM of compound
Chain of CDK 5 (Q00535 whole entry): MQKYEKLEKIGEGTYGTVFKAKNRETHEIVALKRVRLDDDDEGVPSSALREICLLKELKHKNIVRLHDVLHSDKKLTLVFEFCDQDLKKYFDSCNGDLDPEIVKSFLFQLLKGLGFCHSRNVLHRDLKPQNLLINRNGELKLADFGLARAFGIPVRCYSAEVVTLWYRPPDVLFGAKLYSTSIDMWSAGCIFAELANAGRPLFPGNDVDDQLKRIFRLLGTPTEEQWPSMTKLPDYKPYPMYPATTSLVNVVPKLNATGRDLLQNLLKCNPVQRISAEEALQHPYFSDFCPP
Chain of CDK 5 (Q15078 whole entry partner): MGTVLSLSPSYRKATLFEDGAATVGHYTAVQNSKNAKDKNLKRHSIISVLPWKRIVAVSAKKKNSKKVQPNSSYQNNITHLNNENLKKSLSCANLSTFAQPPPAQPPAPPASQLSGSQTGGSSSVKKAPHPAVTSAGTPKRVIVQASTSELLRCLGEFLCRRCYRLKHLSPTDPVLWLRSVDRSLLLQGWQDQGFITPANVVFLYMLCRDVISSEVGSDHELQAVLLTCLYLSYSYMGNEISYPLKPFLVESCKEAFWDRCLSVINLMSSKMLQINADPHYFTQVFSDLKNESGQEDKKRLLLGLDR
Method: as §1, §3, §4

MCF-7 cell line = assay: cells; type: cell-based; conditions: MCF-7, SRB assay, 24 hours; for IC (total growth inhibition): read-out: TGI; for IC50: MCF7, mean of three experiments, read-out: IC50
Method: In the SRB assay, sixteen hours following seeding of 3×10^3 MCF-7 cells in 96-well plates in DMEM containing 10% FCS, the medium was replaced with fresh medium supplemented with the compound of interest, or an equivalent volume of the vehicle control (DMSO), at concentrations, ranging from 0.1 to 100 μM. The compounds were added to three well to provide replicates. The cells were fixed after 24 hours, using 40% (w/v) TCA, for one hour at 4° C., washed five times with distilled, deionised H2O, followed by incubation with 0.4% (w/v) sulphorhodamine B (SRB) in 1% acetic acid for one hour at room temperature. Excess dye was removed with five washes with 1% acetic acid and drying at room temperature. Absorbance at 480 nm was determined following solubilisation of the dye by the addition of 100 μl of 10 mM Tris base to each well.
SRB values (absorbance at 480 nm) for the vehicle control (DMSO) were set at 100% and absorbance at 480 nm for the compound treatments were calculated relative to the control.

[1] = target: T3, CDK7 complex (CDK7, Cyclin H, MAT1) (Homo sapiens, UniProt P50613); assay: CDK7/CycH/MAT1 trimeric complex kinase assay (PKLight luciferase); type: biochemical; conditions: for IC50: Table 2; for remaining activity at 0.1 µM: read-out: CDK7 % remaining kinase activity after incubation with 100 nM of compound
T3 construct: purchased Proqinase GmbH, Germany
T3 sequence (P50613 whole entry): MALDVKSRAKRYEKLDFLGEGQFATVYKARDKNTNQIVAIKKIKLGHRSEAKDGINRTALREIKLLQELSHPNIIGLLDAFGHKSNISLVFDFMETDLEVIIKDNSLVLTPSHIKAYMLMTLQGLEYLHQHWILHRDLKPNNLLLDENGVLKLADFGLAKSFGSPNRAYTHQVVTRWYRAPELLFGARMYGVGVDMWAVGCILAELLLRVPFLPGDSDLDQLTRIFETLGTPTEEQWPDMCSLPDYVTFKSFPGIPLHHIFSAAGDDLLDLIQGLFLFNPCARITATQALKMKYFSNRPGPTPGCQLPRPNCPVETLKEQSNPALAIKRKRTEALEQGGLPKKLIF
T3 sequence (P51946 whole entry partner): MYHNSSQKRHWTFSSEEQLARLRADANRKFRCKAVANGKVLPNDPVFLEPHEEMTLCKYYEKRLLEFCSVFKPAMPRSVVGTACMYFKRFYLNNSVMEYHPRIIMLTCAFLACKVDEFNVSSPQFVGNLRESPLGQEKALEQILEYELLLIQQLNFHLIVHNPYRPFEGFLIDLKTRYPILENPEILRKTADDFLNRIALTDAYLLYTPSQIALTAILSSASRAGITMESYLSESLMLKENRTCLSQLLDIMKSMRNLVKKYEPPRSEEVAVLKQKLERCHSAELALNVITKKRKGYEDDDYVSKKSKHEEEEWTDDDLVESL
T3 sequence (P51948 whole entry partner): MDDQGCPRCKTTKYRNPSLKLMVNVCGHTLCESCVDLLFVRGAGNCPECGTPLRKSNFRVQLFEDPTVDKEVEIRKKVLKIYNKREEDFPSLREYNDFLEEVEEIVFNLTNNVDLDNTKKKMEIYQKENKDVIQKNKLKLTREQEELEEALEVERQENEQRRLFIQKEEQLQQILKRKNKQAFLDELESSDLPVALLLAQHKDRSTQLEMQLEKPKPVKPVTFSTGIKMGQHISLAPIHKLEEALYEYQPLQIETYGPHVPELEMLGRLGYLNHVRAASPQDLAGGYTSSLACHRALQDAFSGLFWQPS
Method: as §1

[2] = 100 nM, mean of three (standard deviation)

Row | SMILES | remaining activity at 0.1 µM (CDK2/cyclin A complex) [%] | LC50 (concentration causing 50% net cell kill) (MCF-7 cell line; Homo sapiens, MCF7, 24 h) [µM] | IC (total growth inhibition) (MCF-7 cell line; Homo sapiens, MCF7, 24 h) [µM] | IC50 (MCF-7 cell line; Homo sapiens) [µM] | remaining activity at 0.1 µM [1, 2] [%] | other results
1 | CC(C)c1cnn2c(NCc3ccccc3)cc(NCCCCCCC(=N)N)nc12 [ICEC-0187] | 9.3 | 23 | > 100 | > 100 |  | remaining activity at 0.1 µM (CDK9/cyclin T complex): 99%; remaining activity at 0.1 µM (CDK4): 98%; remaining activity at 0.1 µM (CDK 5): 93%
2 | CC(C)c1cnn2c(NCc3ccccc3F)cc(N[C@@H](CO)CCCCCCc3ccc4ccccc4n3)nc12 [ICEC-0327] | 16 | 29 | 36 | 47 |  | remaining activity at 0.1 µM (CDK9/cyclin T complex): 51%; remaining activity at 0.1 µM (CDK4): 99%; remaining activity at 0.1 µM (CDK 5): 96%
3 | CC[C@H](CO)Nc1cc(NCc2ccccc2)n2ncc(C(C)C)c2n1 [Example 6] |  |  |  |  |  | IC50 [1]: 0.07 µM; IC50 (CDK2/cyclin A complex; Table 2, read-out: CDK2 IC50): > 1 µM; IC50 (CDK9/cyclin T complex; Table 2, read-out: CDK9 IC50): ~0.1 µM
4 | CC(C)c1cnn2c(NCc3ccccc3F)cc(NCCCCCCN)nc12 [ICEC-0326] | 25 | 92 | > 100 | > 100 |  | remaining activity at 0.1 µM (CDK9/cyclin T complex): 99%; remaining activity at 0.1 µM (CDK4): 99%; remaining activity at 0.1 µM (CDK 5): 91%
5 | CC(C)c1cnn2c(N[C@H](C)c3ccccc3)cc(NCCCCCCN)nc12 [ICEC0274] | 96 | 8 | 23 | 200 | 100 | IC50 (CDK2/cyclin A complex; Table 7, mean of three experiments, read-out: CDK2 kinase inhibition in vitro (IC50)): 0.03 µM
6 | CC(C)c1cnn2c(NCc3ccccc3F)cc(NCCCCCCC#N)nc12 [ICEC-0186] | 9.3 | 20 | 50 | > 100 |  | remaining activity at 0.1 µM (CDK9/cyclin T complex): 98%; IC50 (CDK9/cyclin T complex; Table 7, mean of three experiments, read-out: CDK9 kinase inhibition in vitro (IC50)): 0.16 µM; remaining activity at 0.1 µM (CDK4): 95%; remaining activity at 0.1 µM (CDK 5): 94%
7 | CC(C)c1cnn2c(NCc3ccccc3)cc(Cl)nc12 [ICEC0006, N-Benzyl-5-chloro-3-isopropylpyrazolo[1,5-a]pyrimidin-7-amine] | 75 | 139 | > 200 | > 200 | 65 | 
8 | CC(C)c1cnn2c(NCc3ccccc3)cc(NCC/C=C/CCN)nc12 [ICEC0278] | 72 | 45 |  |  | 21 | 
9 | CC(C)c1cnn2c(NCc3ccccc3F)cc(NCCCCCCc3ccc(N)nc3)nc12 [ICEC0211] | 96 | 39 | 79 | > 200 | 83 | 
10 | CC(C)c1cnn2c(NCc3ccccc3)cc(NCCOCCO)nc12 [Example 3, 2-(2-(7-(Benzylamino)-3-isopropylpyrazolo[1,5-a]pyrimidin-5-ylamino)ethoxy)ethanol] |  |  |  |  |  | IC50 [1]: 0.032 µM; IC50 (CDK2/cyclin A complex; Table 2, read-out: CDK2 IC50): > 1 µM; IC50 (CDK9/cyclin T complex; Table 2, read-out: CDK9 IC50): ~0.1 µM
11 | CC(C)Nc1cc(NCc2ccccc2)n2ncc(C(C)C)c2n1 [Example 2, N^7-Benzyl-N^5,3-diisopropylpyrazolo[1,5-a]pyrimidine-5,7-diamine] |  |  |  |  |  | IC50 [1]: > 1 µM; IC50 (CDK2/cyclin A complex; Table 2, read-out: CDK2 IC50): ~0.1 µM; IC50 (CDK9/cyclin T complex; Table 2, read-out: CDK9 IC50): > 1 µM
12 | CC(C)c1cnn2c(NCc3ccccc3F)cc(NCCCCCNc3cc(NCc4ccccc4F)n4ncc(C(C)C)c4n3)nc12 [ICEC0241] | 77 | 75 | > 200 | > 200 | 73 | 
13 | CC(C)c1cnn2c(NCc3ccccc3)cc(NCCCCN)nc12 [ICEC0277] | 89 | 40 |  |  | 12.6 | 
14 | CC(C)c1cnn2c(NCc3ccccc3F)cc(N[C@@H](CO)CCCCCCN)nc12 [Example 12] |  |  |  |  |  | IC50 [1]: ~0.1 µM; IC50 (CDK2/cyclin A complex; Table 2, read-out: CDK2 IC50): > 1 µM; IC50 (CDK9/cyclin T complex; Table 2, read-out: CDK9 IC50): 0.1 to 1 µM
15 | CC(C)c1cnn2c(NCc3ccc(Cl)cc3Cl)cc(Cl)nc12 [ICEC0239] | 85 | 59 | 200 | > 200 | 82 | 
16 | CC(C)c1cnn2c(NCc3ccccc3F)cc(NCCCCCCCNS(C)(=O)=O)nc12 [ICEC0212] | 91 | 41 | 71 | 192 | 63 | 
17 | CC(C)c1cnn2c(NCc3ccccc3F)cc(N[C@H]3CC[C@H](N)CC3)nc12 [ICEC0229] | 60 | 27 | 42 | 109 | 54 | 
18 | CC(C)c1cnn2c(N[C@@H](C)c3ccccc3)cc(NCCCCCCNc3cc(N[C@@H](C)c4ccccc4)n4ncc(C(C)C)c4n3)nc12 [ICEC0236] | 68 | 11 | 28 | 46 | 91 | 
19 | CC(C)c1cnn2c(NCc3ccc(Cl)cc3)cc(Cl)nc12 [ICEC0244] | 73 | 59 | 117 | > 200 | 81 | 
20 | CC(C)c1cnn2c(NCc3ccccc3F)cc(NCC3CCC(CN)CC3)nc12 (centres unmarked) [ICEC0213] | 90 |  | 119 | > 200 |  | CDK7 % remaining kinase activity after incubation with 100 nM of compound [1, 2]: 81% (0.2); LC50 (concentration causing 50% net cell kill) (MCF-7 cell line): 31 µM
